Experiments:
[1] = test system: Triton induced hyperlipidemia; assay: Hypolipidemic activity in Triton induced hyperlipidemia in rats; format: in vivo, male Wistar rats; settings: for lipid lowering in triton treated rats (total cholesterol and TG), in words: 30 mg/kg oral gavage; for Total Cholesterol / Triglyceride: Triton treated rats, 30 mg/kg oral gavage 2 h before Triton i.p., plasma 18 h after triton injection
Experimental: The rats were housed under optimal laboratory conditions, maintained on 12 h light and dark cycle and had free access to food (Hindustan Lever Products, Kolkata, India) and water. Animals were acclimatized to laboratory conditions before the tests. All experiments were carried out between 0900 and 1700 h. The experimental protocols were approved by the Institutional Animal Ethics Committee and conducted according to the Indian National Science Academy guidelines for the use and care of animals. Fifty five male Wistar rats were divided into the following 11 groups containing 5 animals in each group: Atrovastain and various solvates were freshly suspended in 0.5% carboxymethyl cellulose and administered by oral gavage. Two hours later, all groups except control animals received intraperitonial injection of Triton (100 mg/kg). Eighteen hours after triton injection, blood was collected from tail vein. Plasma was separated and stored at −20°C for further biochemical analysis. Total cholesterol and triglyceride were analyzed in plasma samples using diagnostic kits as per manufacturer instructions.

[2] = Enthalpy of solution by microreaction calorimetry; format: physicochemical; settings: for Enthalpy of solvation ΔsolvH: calculated by equation 3 from enthalpies of solution of drug and solvate in the solvent of solvation; for Molar enthalpy of solution in its own solvent, Solvates (ΔsolH^2): each solvate in its own solvent of solvation; for Molar enthalpy of solution in its own solvent, Solvates (ΔsolH^2) / Molar enthalpy of solution, Methanol ΔsolH (methanol) / Molar enthalpy of solution of Atorvastatin Calcium (ATC) (ΔsolH^1) in the solvent of the solvate: 25°C
Experimental: Molar enthalpy of solution (ΔHsol) was determined in phosphate buffer (pH8) as well as in methanol.
In order to determine the enthalpy associated with the solvation process the enthalpy of solution of a particular solvate was determined in its own solvent.
(3) ΔsolyH=ΔsolH^1−ΔsolH^2
Calorimetric studies were performed on Microreaction calorimeter obtained from Thermal Hazards Technology, UK. Two different solvents, viz, the phosphate buffer (pH 2) and methanol were used to determine the enthalpy of solution and the measurements were performed at 25°C. The size of sample used in this study ranged from 10 to 20 mg and was weighed (Sartorius Model CP225D) into a cylindrical glass tube covered with parafilm on one side. This cylindrical tube was submerged into the ampoule containing the solvent. A plunger with a cap was put from the open end of the tube. The same solvent was put into the reference ampoule. These were put into the sample and reference holes until both rest on the base of the holes. The apparatus was maintained at constant temperature at 25°C (±0.0005°C). The parafilm was shattered mechanically by means of plunger.

[3] = Desolvation of solvates by DSC and TGA; format: physicochemical; settings: for Desolvation temperature: DSC desolvation endotherm maximum, 10°C/min; for Enthalpy of desolvation, ΔdesolvH calculated from equation 4: calculated from enthalpies of solution, heat capacities and enthalpy of vapourization; for Enthalpy of desolvation per mole of solvent (binding energy): equation 1 from DSC desolvation enthalpy and TGA mass loss
Text: The desolvation temperatures account for the stability of solvates as the desolvation temperature in all these forms is much higher than the boiling point of the corresponding solvent. The quantitative estimate of the stability of these solvates is established by determining the binding energy for the solvents in all the solvates using equation 1 where the percent mass loss measured over the TG desolvation step of each solvate (ΔmS%) was related to the enthalpy change calculated over the corresponding DSC desolvation endotherm (ΔHSexp).
(1) ΔHS=ΔHSexp×100Δms%×Ms
where ΔHS (J mol^-1) is the enthalpy of desolvation (or binding energy) per mole of the bound solvent, MS is the molecular mass of the solvent.
(4) ΔdesolyH=ΔsolnH^2−ΔsolnH^1−ΔCPTdesoly−25+1/2ΔyapH
. A mass between 2–8 mg was taken into the aluminium pan, covered with lid and sealed. DSC curves were obtained under a nitrogen purge of 50 mL per minute at a heating rate of 10°C per minute with the temperature range from 50-350°C.
Loss of solvent from the samples was characterized by TGA obtained by TA Instruments-Waters LLC, USA. TGA traces were recorded at heating rates of 10°C per minute under a nitrogen purge of 50 ml per minute. Samples with masses between 1–10 mg were analyzed using platinum pan. Mass loss (%) was calculated based on the mass of the original sample.

[4] = Enthalpy of solution by microreaction calorimetry; format: physicochemical; settings: 25°C

Compound	lipid lowering in triton treated rats (total cholesterol and TG), in words [1]	Total Cholesterol [1] [mg/dL]	Triglyceride [1] [mg/dL]	Enthalpy of solvation ΔsolvH [2] [kJ/mol]	Molar enthalpy of solution in its own solvent, Solvates (ΔsolH^2) [2] [kJ/mol]	Molar enthalpy of solution, Methanol ΔsolH (methanol) [2] [kJ/mol]	Desolvation temperature [3]	Enthalpy of desolvation, ΔdesolvH calculated from equation 4 [3] [kJ/mol]	Enthalpy of desolvation per mole of solvent (binding energy) [3] [kJ/mol]	Enthalpy of desolvation, ΔdesolvH from DSC [3] [kJ/mol]	Molar enthalpy of solution, Phosphate buffer (pH8) ΔsolH [4] [kJ mol^-1]	also measured
CC(C)c1c(C(=O)Nc2ccccc2)c(-c2ccccc2)c(-c2ccc(F)cc2)n1CC[C@@H](O)C[C@@H](O)CC(=O)[O-].CC(C)c1c(C(=O)Nc2ccccc2)c(-c2ccccc2)c(-c2ccc(F)cc2)n1CC[C@@H](O)C[C@@H](O)CC(=O)[O-].CCCCO.[Ca+2] [Solvate VIII]	performed better than pure ATC	152	140	-17.96	-4.6	0.57	119. 5 °C	31.81	61.46	28.56		Molar enthalpy of solution, Phosphate buffer (pH8) ΔsolH ([4]; listed as Solvate- VIII): 1.17 kJ mol^-1; Molar enthalpy of solution, Phosphate buffer (pH8) ΔsolH ([4]; listed as solvate-VIII): 2.475 kJ mol^-1
C1CCOC1.CC(C)c1c(C(=O)Nc2ccccc2)c(-c2ccccc2)c(-c2ccc(F)cc2)n1CC[C@@H](O)C[C@@H](O)CC(=O)[O-].CC(C)c1c(C(=O)Nc2ccccc2)c(-c2ccccc2)c(-c2ccc(F)cc2)n1CC[C@@H](O)C[C@@H](O)CC(=O)[O-].[Ca+2] [Solvate II]		201	170	-22.17	-11.32	9.95		57.17	55.17	51.47	14.31	Desolvation temperature ([3]; listed as Solvate- II): 98.89 °C; Desolvation temperature ([3]; listed as solvate II): 90(±8) °C
CC(C)c1c(C(=O)Nc2ccccc2)c(-c2ccccc2)c(-c2ccc(F)cc2)n1CC[C@@H](O)C[C@@H](O)CC(=O)[O-].CC(C)c1c(C(=O)Nc2ccccc2)c(-c2ccccc2)c(-c2ccc(F)cc2)n1CC[C@@H](O)C[C@@H](O)CC(=O)[O-].CC(C)c1c(C(=O)Nc2ccccc2)c(-c2ccccc2)c(-c2ccc(F)cc2)n1CC[C@@H](O)C[C@@H](O)CC(=O)[O-].CC(C)c1c(C(=O)Nc2ccccc2)c(-c2ccccc2)c(-c2ccc(F)cc2)n1CC[C@@H](O)C[C@@H](O)CC(=O)[O-].CCO.O.O.[Ca+2].[Ca+2] [Solvate VII]		202	167	-116.74	-4.25	12.7		103.96	106.61	104.64	16.98	Desolvation temperature ([3]; listed as Solvate-VII): 105.13 °C; Desolvation temperature ([3]; listed as VII): 105.1 °C
CC(C)c1c(C(=O)Nc2ccccc2)c(-c2ccccc2)c(-c2ccc(F)cc2)n1CC[C@@H](O)C[C@@H](O)CC(=O)[O-].CC(C)c1c(C(=O)Nc2ccccc2)c(-c2ccccc2)c(-c2ccc(F)cc2)n1CC[C@@H](O)C[C@@H](O)CC(=O)[O-].CCO.[Ca+2] [Solvate III]		203	172		-7.61	3.05		34.39	63.34	44.69	5.46	Desolvation temperature ([3]; listed as III): 90(±8) °C; Desolvation temperature ([3]; listed as Solvate- III): 90.42 °C
CC(C)O.CC(C)c1c(C(=O)Nc2ccccc2)c(-c2ccccc2)c(-c2ccc(F)cc2)n1CC[C@@H](O)C[C@@H](O)CC(=O)[O-].CC(C)c1c(C(=O)Nc2ccccc2)c(-c2ccccc2)c(-c2ccc(F)cc2)n1CC[C@@H](O)C[C@@H](O)CC(=O)[O-].CC(C)c1c(C(=O)Nc2ccccc2)c(-c2ccccc2)c(-c2ccc(F)cc2)n1CC[C@@H](O)C[C@@H](O)CC(=O)[O-].CC(C)c1c(C(=O)Nc2ccccc2)c(-c2ccccc2)c(-c2ccc(F)cc2)n1CC[C@@H](O)C[C@@H](O)CC(=O)[O-].[Ca+2].[Ca+2] [Solvate I]	performed better than pure ATC	161	143	-10.93	-24.45	1.15	84.71 °C	25.93	141.41	24.20	2.51	
CC(C)c1c(C(=O)Nc2ccccc2)c(-c2ccccc2)c(-c2ccc(F)cc2)n1CC[C@@H](O)C[C@@H](O)CC(=O)O [ATC, Atorvastatin calcium, reference compound]	reduced lipid profile	198	169			19.11					21.89	Molar enthalpy of solution of Atorvastatin Calcium (ATC) (ΔsolH^1) in the solvent of the solvate ([2]; solvent of Solvate I (isopropyl alcohol)): -13.52 kJ/mol; Molar enthalpy of solution of Atorvastatin Calcium (ATC) (ΔsolH^1) in the solvent of the solvate ([2]; solvent of Solvate II (THF)): 10.85 kJ/mol; Molar enthalpy of solution of Atorvastatin Calcium (ATC) (ΔsolH^1) in the solvent of the solvate ([2]; solvent of Solvate III (ethanol)): 32.06 kJ/mol; Molar enthalpy of solution of Atorvastatin Calcium (ATC) (ΔsolH^1) in the solvent of the solvate ([2]; solvent of Solvate IV (t-butanol)): 34.85 kJ/mol; Molar enthalpy of solution of Atorvastatin Calcium (ATC) (ΔsolH^1) in the solvent of the solvate ([2]; solvent of Solvate V (methanol)): 16.35 kJ/mol; Molar enthalpy of solution of Atorvastatin Calcium (ATC) (ΔsolH^1) in the solvent of the solvate ([2]; solvent of Solvate VI (acetone + ethanol)): 41.20 kJ/mol; Molar enthalpy of solution of Atorvastatin Calcium (ATC) (ΔsolH^1) in the solvent of the solvate ([2]; solvent of Solvate VII (ethanol + water)): 112.49 kJ/mol; Molar enthalpy of solution of Atorvastatin Calcium (ATC) (ΔsolH^1) in the solvent of the solvate ([2]; solvent of Solvate VIII (1-butanol)): 13.36 kJ/mol
CC(C)c1c(C(=O)Nc2ccccc2)c(-c2ccccc2)c(-c2ccc(F)cc2)n1CC[C@@H](O)C[C@@H](O)CC(=O)[O-].CC(C)c1c(C(=O)Nc2ccccc2)c(-c2ccccc2)c(-c2ccc(F)cc2)n1CC[C@@H](O)C[C@@H](O)CC(=O)[O-].CO.[Ca+2] [Solvate V]		198	170		2.12	2.12	70.15 °C	26.70	54.90	26.27	3.85	
